PMC7753147, “High-throughput determination of protein affinities using unmodified peptide libraries in nanomolar scale” (iScience, 2020)

Tests used:
[1] = tested on: FL-geph; assay: µSPOT peptide microarray binding assay with full-length geph
[2] = tested on: gephE; assay: µSPOT peptide microarray binding assay with recombinant gephE
[3] = tested on: native geph; assay: µSPOT peptide microarray binding assay with native geph from mouse brain lysate
[4] = µSPOT full positional scan of GlyRβ 15-mer DLRSNDFSIVGSLPR, intensity normalised to wild-type sequence (= 1)
[5] = µSPOT full positional scan of GlyRβ 15-mer DLRSNDFSIVGSLPR, native geph, intensity normalised to wild-type sequence (= 1)
[6] = µSPOT peptide microarray, GlyRβ full positional scan, intensity normalised to wild-type sequence DLRSNDFSIVGSLPR (=1)
[7] = µSPOT peptide microarray, GlyRβ full positional scan, recombinant gephE, intensity normalised to wild-type sequence DLRSNDFSIVGSLPR (=1)
[8] = µSPOT peptide microarray, GlyRβ full positional scan, native geph from mouse brain lysate, intensity normalised to wild-type sequence DLRSNDFSIVGSLPR (=1)

Row | Sequence | Fl-geph Binding Intensity [norm.] [1, 4] [norm.] | gephE Binding Intensity [norm.] [2, 4] [norm.] | Native geph Binding Intensity [norm.] [3, 5] [norm.] | Fl-geph Binding Intensity [norm.] [1, 6] [norm.] | gephE Binding Intensity [norm.] [2, 7] [norm.] | Native geph Binding Intensity [norm.] [3, 8] [norm.]
1 | DLRSNDFSIVGSPPR [GlyRβ_Full_Positional_Scan_245] | 0.96 | 0.89 | 0.78 | – | – | –
2 | DLRSNDFSIVGSRPR [GlyRβ_Full_Positional_Scan_252] | 1.07 | 0.84 | 0.38 | – | – | –
3 | DLRSNDFSIVGSSPR [GlyRβ_Full_Positional_Scan_255] | 1.08 | 0.84 | 0.85 | – | – | –
4 | DLRSNDFSIVGSVPR [GlyRβ_Full_Positional_Scan_246] | 1.06 | 0.92 | 0.82 | – | – | –
5 | DLRSNDFSIVGSWPR [GlyRβ_Full_Positional_Scan_248] | 0.93 | 0.7 | 0.52 | – | – | –
6 | DLRSNDFSIVGSYPR [GlyRβ_Full_Positional_Scan_249] | 0.87 | 0.99 | 1.23 | – | – | –
7 | DLRSNDFSIVGTLPR [GlyRβ_Full_Positional_Scan_236] | 0.98 | 0.94 | 1.05 | – | – | –
8 | DLRSNDFSIVGVLPR [GlyRβ_Full_Positional_Scan_226] | 1.01 | 0.69 | 0.74 | – | – | –
9 | DLRSNDFSIVGWLPR [GlyRβ_Full_Positional_Scan_228] | 0.67 | 0.57 | 0.19 | – | – | –
10 | DLRSNDFSIVGYLPR [GlyRβ_Full_Positional_Scan_229] | 0.59 | 0.53 | 0.31 | – | – | –
11 | DLRSNDFSIVHSLPR [GlyRβ_Full_Positional_Scan_213, GlyR β 414-428 variant G424H] | 0.5 | 0.47 | 0.18 | – | – | –
12 | DLRSNDFSIVISLPR [GlyRβ_Full_Positional_Scan_203, GlyR β 414-428 variant G424I] | – | – | – | 0.52 | 0.48 | 0.29
13 | DLRSNDFSIVKSLPR [GlyRβ_Full_Positional_Scan_214, GlyR β 414-428 variant G424K] | 0.44 | 0.5 | 0.17 | – | – | –
14 | DLRSNDFSIVLSLPR [GlyRβ_Full_Positional_Scan_204, GlyR β 414-428 variant G424L] | – | – | – | 0.53 | 0.57 | 0.23
15 | DLRSNDFSIVMSLPR [GlyRβ_Full_Positional_Scan_218, GlyR β 414-428 variant G424M] | 0.33 | 0.36 | 0.17 | – | – | –
16 | DLRSNDFSIVNSLPR [GlyRβ_Full_Positional_Scan_219, GlyR β 414-428 variant G424N] | 0.41 | 0.38 | 0.17 | – | – | –
17 | DLRSNDFSIVPSLPR [GlyRβ_Full_Positional_Scan_205, GlyR β 414-428 variant G424P] | – | – | – | 0.5 | 0.41 | 0.21
18 | DLRSNDFSIVQSLPR [GlyRβ_Full_Positional_Scan_220, GlyR β 414-428 variant G424Q] | 0.45 | 0.43 | 0.29 | – | – | –
19 | DLRSNDFSIVRSLPR [GlyRβ_Full_Positional_Scan_212, GlyR β 414-428 variant G424R] | 0.6 | 0.57 | 0.17 | – | – | –
20 | DLRSNDFSIVSSLPR [GlyRβ_Full_Positional_Scan_215, GlyR β 414-428 variant G424S] | 0.44 | 0.4 | 0.2 | – | – | –
21 | DLRSNDFSIVTSLPR [GlyRβ_Full_Positional_Scan_216, GlyR β 414-428 variant G424T] | 0.47 | 0.49 | 0.28 | – | – | –
22 | DLRSNDFSIVVSLPR [GlyRβ_Full_Positional_Scan_206, GlyR β 414-428 variant G424V] | – | – | – | 0.42 | 0.43 | 0.17
23 | DLRSNDFSIVWSLPR [GlyRβ_Full_Positional_Scan_208, GlyR β 414-428 variant G424W] | – | – | – | 0.35 | 0.32 | 0.16
24 | DLRSNDFSIVYSLPR [GlyRβ_Full_Positional_Scan_209, GlyR β 414-428 variant G424Y] | – | – | – | 0.48 | 0.41 | 0.2
25 | DLRSNDFSIWGSLPR [GlyRβ_Full_Positional_Scan_188, GlyR β 414-428 variant V423W] | – | – | – | 0.62 | 0.68 | 0.27
26 | DLRSNDFSIYGSLPR [GlyRβ_Full_Positional_Scan_189, GlyR β 414-428 variant V423Y] | – | – | – | 0.84 | 0.79 | 0.34
27 | DLRSNDFSKVGSLPR [GlyRβ_Full_Positional_Scan_174, GlyR β 414-428 variant I422K] | – | – | – | 0.58 | 0.47 | 0.13

Continued, values first:

Row | Fl-geph Binding Intensity [norm.] [1, 4] [norm.] | gephE Binding Intensity [norm.] [2, 4] [norm.] | Native geph Binding Intensity [norm.] [3, 5] [norm.] | Fl-geph Binding Intensity [norm.] [1, 6] [norm.] | gephE Binding Intensity [norm.] [2, 7] [norm.] | Native geph Binding Intensity [norm.] [3, 8] [norm.] | Sequence
28 | 1.37 | 0.87 | 1.56 | – | – | – | DLRSNDFSIVGSLPT [GlyRβ_Full_Positional_Scan_296]
29 | 0.97 | 1.06 | 0.96 | – | – | – | DLRSNDFSIVGSLPV [GlyRβ_Full_Positional_Scan_286]
30 | 0.84 | 0.89 | 0.76 | – | – | – | DLRSNDFSIVGSLPW [GlyRβ_Full_Positional_Scan_288]
31 | 0.74 | 0.87 | 1.09 | – | – | – | DLRSNDFSIVGSLPY [GlyRβ_Full_Positional_Scan_289]
32 | 0.77 | 0.53 | 0.41 | – | – | – | DLRSNDFSIVGSLQR [GlyRβ_Full_Positional_Scan_280]
33 | 0.93 | 0.59 | 0.25 | – | – | – | DLRSNDFSIVGSLRR [GlyRβ_Full_Positional_Scan_272]
34 | 0.92 | 0.72 | 0.5 | – | – | – | DLRSNDFSIVGSLSR [GlyRβ_Full_Positional_Scan_275]
35 | 0.96 | 0.74 | 0.49 | – | – | – | DLRSNDFSIVGSLTR [GlyRβ_Full_Positional_Scan_276]
36 | 0.91 | 0.62 | 0.45 | – | – | – | DLRSNDFSIVGSLVR [GlyRβ_Full_Positional_Scan_266]
37 | 0.72 | 0.61 | 0.32 | – | – | – | DLRSNDFSIVGSLWR [GlyRβ_Full_Positional_Scan_268]
38 | 0.71 | 0.78 | 0.59 | – | – | – | DLRSNDFSIVGSLYR [GlyRβ_Full_Positional_Scan_269]
39 | 1.08 | 0.69 | 0.92 | – | – | – | DLRSNDFSIVGSMPR [GlyRβ_Full_Positional_Scan_258]
40 | 1.03 | 0.9 | 0.97 | – | – | – | DLRSNDFSIVGSNPR [GlyRβ_Full_Positional_Scan_259]
41 | 0.97 | 0.76 | 0.8 | – | – | – | DLRSNDFSIVGSQPR [GlyRβ_Full_Positional_Scan_260]
42 | 1.14 | 0.86 | 0.89 | – | – | – | DLRSNDFSIVGSTPR [GlyRβ_Full_Positional_Scan_256]
